The conditions of assay [1]: centrally administered; cited from earlier work.
In assay [2] the test system is AVPe/MPA including Q-neurons. The conditions noted are these: AAV10-CaMKIIα-hM3Dq-mCherry injected into AVPe/MPA; cited from earlier work.
Assay [3] has as its system Q-hM3D mice. The settings on record: mouse, in vivo.
Source text: In order to evaluate the thermoregulatory system under QIH and normal conditions, the heat loss and the heat production of the animals were described by a hierarchical multilayer model (FIGS. 3c to 3k, code folder QIH_GTRH). Three parameters of G, TR, and H under two metabolic conditions, that is, normal and QIH, were estimated from a metabolically stable state of the animals at various TAs. […] In brief, a linear model consisting of the controllable parameter TA and the observable parameters TB and VO2 was fitted to the experimental results for both TB and VO2 by using TA as a predictor having normally distributed noise. Next, G, TR, and H were estimated by using the posterior distributions of the slope and the intercept coefficient of each model. In this analysis, the prior probability density function of the standard deviation of noise was a standard half-normal distribution, and the other parameters used a positive region of a uniform distribution except for the intercept coefficient of TB, which used a uniform distribution due to negative values.
In order to evaluate this, feature analysis of the thermoregulatory system of mice during QIH was carried out. […] Q-hM3D mice were prepared, and TB and VO2 were recorded during QIH at various TAs (8, 12, 16, 20, 24, 28, and 32° C.) (FIG. 3a). […]
In assay [4] the test system is Qrfp-iCre; Rosa26^dreaddm3 mice. In words: Thermographic surface body temperature and motor activity after CNO in Qrfp-iCre; Rosa26^dreaddm3 mice. It is filed as in vivo, mouse. From the text:
For thermographic analysis, the mice were placed in an experimental cage (25×15×10 cm) and monitored by using an infrared thermal imaging camera (InfReC R500 EX; NIPPON AVIONICS) placed 30 cm above the cage floor. In order to clearly detect the surface temperature, the dorsal hair was removed by using hair clippers one day before the start of the experiment. Thermograms of DREADD and optogenetic experiments were collected at 0.5 Hz and 1 Hz, respectively, and analyzed by using the InfReC Analyzer NS9500 Professional software (NIPPON AVIONICS). The highest temperature in one frame was used as TS of the animal (FIG. 1d).
The pyroglutamylated RFamide peptide (QRFP), a hypothalamic neuropeptide, was originally discovered through a bioinformatics approach aimed at the discovery of a new RFamide peptide^9,10. The Qrfp peptide was also identified and purified from the rat brain as an endogenous ligand for the orphan G-protein-coupled receptor hGPR103^11. The prepro-Qrfp mRNA is localized only in the hypothalamus and is distributed in the periventricular nucleus (Pe), the lateral hypothalamus (LHA), and the tuber cinereum (TC) 11. Orfp has previously been implicated in food intake, sympathetic regulation, and anxiety^11,12. The inventors prepared mice (Qrfp-iCre mice) having codon-improved Cre recombinase (iCre) knocked-in into the Qrfp gene. In order to obtain mice (Qrfp-iCre; Rosa26^dreaddm3 mice) in which hM3Dq-mCherry was expressed only in iCre-expressing neurons, the inventors crossbred […] with Rosa26^dreadm3 mice having an upstream floxed transcription arrest element inserted at the Rosa26 gene locus. […] The decrease in Ts started about 5 minutes after CNO administration and lasted for approximately 12 hours. After that, the mice spontaneously recovered from the hypothermic state without external rewarming.

In assay [5] the test system is neurons in AVPe, MPA, and Pe. Put plainly: Fos immunostaining after CNO IP in Q-hM3D mice. It counts as in vivo, mouse. The conditions noted are these: 90 minutes after CNO IP. The method, then: Each mouse was deeply anesthetized with isoflurane, transcardially perfused with 10% sucrose in water, and subsequently perfused with ice-cooled 4% paraformaldehyde (4% PFA) in a 0.1 M phosphate buffer having a pH of 7.4, and the brain was removed. The brain was left in 4% PFA overnight at 4° ° C., then fixed, incubated overnight at 4° C. in 30% sucrose in a 0.1 M phosphate buffered saline (PBS) having a pH of 7.4, immersed in a Tissuue-Tek O.C.T. compound (Sakura) in a cryomold, and frozen at −80° C. until sectioned. The brain was sliced coronally by using a cryostat (CM1860, Leica) every 50 μm into four equal series, collected in a 6-well plate filled with ice-cooled PBS, and washed three times with PBS at room temperature (RT). Unless otherwise specified, the following incubation step was carried out with gently shaking on an orbital shaker. Brain sections were incubated for 1 hour at room temperature in 1% Triton X-100 in PBS. […]
The primary antibodies used in the present study were rabbit anti-cFos (1:4000, ABE457, Millipore), goat anti-mCherry (1:15000, AB0040-200, SICGEN), rat anti-GFP (1:5000, 04404-84, NACALAI TESQUE), mouse anti-TH (1:1000, sc-25269, Santa Cruz Biotechnology), mouse anti-orexin A (1:200, sc-80263, Santa Cruz Biotechnology), and rabbit anti-MCH (1:2000, M8440, SIGMA). […] Brain regions were determined by using mouse brain maps from Paxinos and Franklin^36.

For assay [6], the system named is Q-hM3D mice. Put plainly: Body temperature, oxygen consumption, heart rate and respiration after CNO IP in Q-hM3D mice. It is filed as in vivo, mouse.
For assay [7], the system named is hM3Dq-mCherry-expressing neurons. Put plainly: Current-clamp recording of hypothalamus slices with bath-applied CNO. It counts as cell-based, mouse. The settings on record: bath application; CNO 1 μM; 30° C. The method, then:
The mice were decapitated under deep anesthesia using isoflurane (Pfizer). The brains were extracted and cooled in an ice-cold cutting solution containing the following (mM): 125 mM choline chloride, 25 mM NaHCO3, 10 mM D(+)-glucose, 7 mM MgCl2, 2.5 mM KCl, 1.25 mM NaH2PO4, and 0.5 mM CaCl2 bubbled with O2 (95%) and CO2 (5%). Horizontal brain slices (250 μm in thickness) including the hypothalamus were prepared by using a vibratome (VT1200S, Leica) and were maintained at room temperature for 1 hour in artificial CSF (ACSF) containing the following (mM): 125 mM NaCl, 26 mM NaHCO3, 10 mM D(+)-glucose, 2.5 mM KCl, 2 mM CaCl2), and 1 mM MgSO4 bubbled with O2 (95%) and CO2 (5%). The electrodes (5 to 8 MΩ) were filled with an internal solution containing the following (mM): 125 mM K-gluconate, 10 mM HEPES, 10 mM phosphocreatine, 0.05 mM tolbutamide, 4 mM NaCl, 4 mM ATP, 2 mM MgCl2, 0.4 mM GTP, and 0.2 mM EGTA, pH 7.3, adjusted with KOH). Firing of hM3Dq-mCherry-expressing neurons was recorded in current-clamp mode at a temperature of 30° C. CNO (1 μM) was bath-applied, and the effect was investigated. The membrane potential and data acquisition were controlled by using a combination of a MultiClamp 700B amplifier, a Digidata 1440A A/D converter, and Clampex 10.3 software (Molecular Devices). […]

Assay [8] concerns wild-type mice. In words: Metabolic state induced by IP CHA in wild-type mice.
Procedure: The adenosinea receptor agonist CHA (N6-cyclohexyladenosine, Sigma-Aldrich, C9901) was dissolved in physiological saline at a concentration of 250 μg/mL, and the resulting solution was intraperitoneally administered to each mouse at a dose of 2.5 mg/kg.
In addition, the metabolic state induced by systemic delivery of the adenosine A1AR agonist (6)N-cyclohexyladenosine (CHA), which is used to induce a hypothermic state, was also investigated^19.
[9] abbreviates: surface body temperature, thermographic camera.

As for “pyroglutamylated RFamide peptide (QDEGSEATGFLPAAGEKTSGPLGNLAEELNGYSRKKGGFSFRF; QRF-amide; UniProt P83859 91-133, looked up) [Qrfp, hypothalamic neuropeptide, endogenous ligand for the GPR103 receptor]”, the “effect on sympathetic nerve outflow, heart rate and blood pressure” value in assay [1] was “increases sympathetic nerve outflow and increases the heart rate and the blood pressure”.
For the compound `C[N+]1([O-])CCN(C2=Nc3cc(Cl)ccc3Nc3ccccc32)CC1` [CNO, clozapine N-oxide], in assay [2], the “induction of QIH in rats” value is “induced QIH with hypothermia and hypometabolism”. Moreover, in assay [3], the “difference between the medians of TR, normal vs QIH” value turned out to be 8.41 °C and the “reduction in the median of H in QIH from the normal state” value was 95.3%. Besides, the “hypothermia accompanying the CNO-induced immobile state” value in assay [4] (FIG. 1b) was “remarkable and sustained hypothermia”. Besides, the “start of severe and sustained immobile state after injection” value in assay [4] (intraperitoneal (IP) injection) is listed as “about 30 minutes”. Moreover, in assay [4] (setting [9]), the “duration of decrease in Ts” value is “approximately 12 hours” and the “start of decrease in Ts after administration” value was “about 5 minutes”. Further, the “in vivo excitation of neurons (anti-Fos and anti-mCherry)” value in assay [5] was “numerous mCherry and Fos double-positive neurons”. For the same compound, the “induction of QIH” value in assay [6] (CNO injection, before in situ hybridization) is on record as “effectively induced QIH”. The “QIH after repeated injections in the same mice” value in assay [6] (FIG. 1h) was “reproducible”. In assay [6] (IP injection, FIG. 1d), the “duration of very low TB state (below 30° C.)” value is not below 48 h. In addition, in assay [6] (TA=20° C., one dose 1 mg/kg), the “duration of QIH with a TB of less than 30° C.” value was not below 48 h and the “time for VO2 to fully return to normal” value was “about 1 week”. The “hypothermia compared with Qrfp-iCre; Rosa26^dreaddm3 mice” value in assay [6] (mouse, in vivo, ip) is “deeper, longer-lasting hypothermia”. For the same compound, in assay [6] (respiratory gas analysis, FIG. 1g), the “O2 consumption rate (VO2) in the CNO-induced hypothermic state” value is “remarkable decrease”. The “action of CNO on TB with TeTxLC co-expression” value in assay [6] (simultaneous injection of AAV2/9-hSyn-DIO-TeTxLC-eYFP and AAV10-EF1α-DIO-hM3Dq-mCherry) was “completely eliminated”. This compound also yielded a VO2 in assay [6] (two hours after CNO injection, 3.60 before) of 1.17 mL/g/h. Further, the respiratory rate result in assay [6] (two hours after CNO injection, 333 before, tidal volume below detection limit) is reported as “undetectable”. The same compound gave a heart rate in assay [6] (two hours after CNO injection, 758 two hours before, average of n=3) of 215 beats/min. For the same compound, in assay [7], the “excitation of mCherry-positive neurons” value is recorded as “strongly excited”.
As for `OC[C@H]1O[C@@H](n2cnc3c(NC4CCCCC4)ncnc32)[C@H](O)[C@@H]1O` [CHA, N6-cyclohexyladenosine], the “TB and VO2 when TA was set to 12° C.” value in assay [8] (IP 2.5 mg/kg, CHA-induced hypothermia) is on record as “further decreased”. For the same compound, the “reaction to low TA (increase in VO2, posture, shivering)” value in assay [8] (IP 2.5 mg/kg, TA 12° C.) was “did not react to a low TA”. In addition, the “induction of hypothermic/hypometabolic state” value in assay [8] (IP injection 2.5 mg/kg) was “effectively induced a hypothermic/hypometabolic state”.

The values above are taken from patent US20240180485A1, “METHOD AND DEVICE FOR INDUCING HYPOMETABOLIC STATE IN SUBJECT WITH DISEASE” (UNIVERSITY OF TSUKUBA, priority 2021, published 2024).
